Test results from publication PMC7939384, “In crystallo screening for proline analog inhibitors of the proline cycle enzyme PYCR1” (The Journal of Biological Chemistry, 2021).
Several values for one entry are separate records, joined by “and”; a condition that tells them apart may be missing. Equal entries are not always repeated.

Legend:
[1] = tested on: PYCR1; design: method as in PMID 31362921; details: reported IC50 against PYCR1; cited from earlier work
[2] = biological target: T1, human PYCR1 (Homo sapiens, UniProt P32322); test: In crystallo screening: electron density as readout for binding (crystal soaking); design: includes residues 1–300 of the full-length 319-residue enzyme; inferred from the Ni-NTA purification; made in house; host or cells: Escherichia coli BL21 (DE3); details: apo crystals soaked with 25–500 mM of the proline analog
T1 sequence (P32322 1-300): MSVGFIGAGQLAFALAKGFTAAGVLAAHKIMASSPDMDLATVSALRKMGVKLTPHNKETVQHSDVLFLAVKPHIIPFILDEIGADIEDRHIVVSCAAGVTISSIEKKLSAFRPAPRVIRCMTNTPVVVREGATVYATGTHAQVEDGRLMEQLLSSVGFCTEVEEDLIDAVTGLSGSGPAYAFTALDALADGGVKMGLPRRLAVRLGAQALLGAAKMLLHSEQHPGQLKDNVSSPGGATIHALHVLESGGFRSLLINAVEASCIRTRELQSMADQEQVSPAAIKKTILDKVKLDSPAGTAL
Experimental: (§1) Over two dozen proline analogs (Fig. 2) were screened using electron density from X-ray crystallography as the readout for binding to human PYCR1. […] Because the compounds bind in the P5C/proline site, the mechanism of inhibition was assumed to be competitive with P5C. Therefore, steady-state kinetic measurements were performed with L-P5C as the variable substrate (0-1000 μM) and NADH fixed (175 μM) (Fig. 3). For each compound, the data were fit globally to a competitive inhibition model (Equation 1) to obtain an inhibition constant, Ki.
06594), D,L-thiazolidine-2-carboxylate (Sigma-Aldrich no. 467995), L-thiazolidine-4-carboxylate (Sigma-Aldrich no. T27502), 1,3-thiazolidine-2,4-dicarboxylate (Sigma-Aldrich no. CDS000186), dimethyl 1,3-thiazolidine-2,4-dicarboxylate (Sigma-Aldrich no. […] 287067), L-4-hydroxyproline methyl ester (hydrochloride) (Sigma-Aldrich no. 30681), cis-4-hydroxy-D-proline methyl ester (hydrochloride) (Sigma-Aldrich no. […] 441562), L-(+)-mandelic acid (Sigma-Aldrich no. 63460), sodium-L-lactate (Sigma-Aldrich no. 71718), D-cycloserine (Sigma-Aldrich no. C6880). The proline analogs were added to apo crystals during cryoprotection by soaking the crystals in the reservoir solution supplemented with cryoprotectant (PEG 200 for the PEG 3350 form; glycerol for the NaCl form) and then in the same cryobuffer supplemented with 25–500 mM of the proline analog. Following equilibration, the crystals were harvested and rapidly plunged into liquid nitrogen.
The complex of PYCR1 with THFA was obtained by soaking a C2 crystal (NaCl form) for 15 min in a cryo-buffer consisting of the reservoir solution (3 M NaCl and 0.1 M HEPES at pH 7.5–8.0) supplemented with 30% glycerol and 50 mM THFA, followed by flash-cooling in liquid nitrogen. Crystals of the NFLP complex were prepared by soaking P2_12_12 crystals in the reservoir solution (250 mM Li2SO4, 19% (w/v) PEG 3350, 0.1 M HEPES, pH 7.5) supplemented with 20% (v/v) PEG 200 and 100 mM NFLP. The complexes with L-T2C and L-T4C were prepared similarly, except the Li2SO4 concentration was reduced to 25 mM and 50 mM of either L-T4C or D,L-T2C was included.

[3] = biological target: T1, human PYCR1; test: biochemical; details: for Ki: competitive with P5C, NADH fixed 175 μM; for kcat: kcat for L-P5C at fixed NADH 175 μM, global fit of the data set with this analog
Experimental: as §1
B, THFA. C, CPC. D, T4C. E, T2C. F, NFLP. The data were measured in 50 mM Tris (pH 7.5) with 1 mM EDTA disodium salt while holding NADH fixed at 175 μM and varying D,L-P5C (0–2000 μM). The concentration of the substrate L-P5C was considered to be half the total D,L-P5C concentration added to the assays. Curves represent global fits of the data to a competitive inhibition model showing initial velocity in units of µM [NAD^+] s^−1 as a function of L-P5C concentration (µM).
A C-terminal truncation variant of human PYCR1, which includes residues 1–300 of the full-length 319-residue enzyme, was used for kinetics and X-ray crystallography ([18]). PYCR1 was overexpressed in Escherichia coli BL21 (DE3) competent cells and purified using methods similar to those previously reported ([18]). Harvested cells were lysed via sonication in a mixture containing DNase I, lysozyme, and 0.2 mM phenylmethylsulfonyl fluoride protease inhibitor, and then the insoluble material was removed via centrifugation at 16,000 rpm for 1 h at 4°C. The resulting lysate was purified by gravity-flow chromatography on a column containing Ni^2+–nitrilotriacetic acid resin (Qiagen) pre-equilibrated with binding buffer consisting of 50 mM HEPES, 300 mM NaCl, 10 mM imidazole, and 5% (w/v) glycerol at pH 7.8 (buffer A). The column was washed with buffer A supplemented with 30 mM imidazole, and then the bound protein was eluted with buffer A supplemented with 300 mM imidazole. Elution fractions containing PYCR1 were identified by SDS-PAGE and prepared for further purification by size-exclusion chromatography by dialyzing into 300 mM NaCl, 2% (w/v) glycerol, and 50 mM HEPES at pH 7.5. Size-exclusion chromatography was performed on a HiLoad 16/600 Superdex 200 column equilibrated with 50 mM HEPES, pH 7.8, 300 mM NaCl, and 5% (w/v) glycerol. Purified PYCR1 was concentrated to 8 mg/ml and stored at 4°C for subsequent crystallization trials.
Kinetic measurements were performed in a BioTek Epoch 2 microplate spectrophotometer using Corning 96-well UV-transparent microplates. Activity assays were performed by monitoring the consumption of NADH at 340 nm (ε340 = 6220 M^−1 cm^−1) using P5C as the substrate. D,L-P5C was synthesized as described previously ([45]), quantified using o-aminobenzaldehyde (o-AB), and stored in 1 M HCl at 4°C. Neutralization of D,L-P5C to pH 7.5 was performed immediately prior to assays using 1 M Tris (pH 7.5) and 6 M NaOH. The concentration of the substrate L-P5C was assumed to be half the total D,L-P5C concentration added to the assays.
The following microplate protocol was employed. Substrate mixtures containing P5C, NADH, EDTA, and Tris buffer were prepared in a deep well block for each P5C concentration. Mixtures containing enzyme and various concentrations of the inhibitor were prepared in microcentrifuge tubes and incubated on ice in buffer containing 50 mM HEPES pH 7.8, 300 mM NaCl, and 5% (w/v) glycerol. The final concentration of PYCR1 in the assay was 6.25 nM. Twenty μl of the enzyme-analog mixture was added to microplate wells using a single-channel pipette, and then the reaction was initiated by addition of 180 μl of the substrate mixtures using a multi-channel pipettor. The reaction traces were followed for 35 min.

[4] = Ki, 50 mM Tris pH 7.5, global fit

C#CCN(C)Cc1ccccc1 [pargyline]
IC50 [1]: 200 µM

O=C(O)[C@@H]1CCCO1 [THFA, (S)-(−)-tetrahydro-2-furoic acid]
electron density evidence for binding (in words) [2]: Electron density evidence for binding was observed
inhibition of PYCR1 (in words) [3]: only negligibly inhibits PYCR1
Ki ([3]; Ki (estimated), rounded values): > 1000 µM and 2000 µM
Ki [3, 4]: 2250 ± 121 µM
kcat [3]: 69 ± 1 s⁻¹

O=C(O)C1CCCC1 [CPC, cyclopentanecarboxylate]
Ki ([3]; Ki (estimated), rounded values): > 1000 µM and 1000 µM
Ki [3, 4]: 1190 ± 61 µM
kcat [3]: 35 ± 1 s⁻¹

O=C(O)C1NCCS1 [L-T2C, L-thiazolidine-2-carboxylate]
electron density evidence for binding (in words) [2]: Electron density evidence for binding was observed
Ki ([3]; Ki (estimated), rounded values): ~400 µM
Ki [3, 4]: 438 ± 29 µM
kcat [3]: 37 ± 1 s⁻¹

CC(=O)N1CCC[C@H]1C(=O)O [N-acetyl L-proline]
inhibition of PYCR1 (in words) [3]: did not inhibit PYCR1

O=C(O)[C@@H]1CSCN1 [L-T4C, L-thiazolidine-4-carboxylate]
electron density evidence for binding (in words) [2]: Electron density evidence for binding was observed
Ki ([3]; Ki (estimated), rounded values): ~600 µM
Ki [3, 4]: 598 ± 39 µM
kcat [3]: 54 ± 2 s⁻¹
